10 molecules from paper PMC9979347 (ACS Omega, 2023) can be followed below.

Values joined by “and” are separate entries in the source; they are usually repeats but may differ in a detail not shown here. Identical values can stand only once. “Also recorded” adds a separate entry of the source. Like-named read-outs stand apart in the source and are kept apart here. Bounds are passed on as bounds.

Assay [1] concerns SR. Briefly: NCI-60 SRB screen. The assay is classed as cell-based, human. The settings on record: five-dose, 48 h.
Assay [2] deals with K-562. Briefly: NCI-60 SRB screen. As to conditions: Homo sapiens, K562, 48 h. The assay is classed as cell-based.
The target in assay [3] is hCA I (Homo sapiens, UniProt P00915). Briefly: stopped-flow CO2 hydration inhibition assay. The assay is classed as biochemical.
hCA I, sequence (P00915 whole entry): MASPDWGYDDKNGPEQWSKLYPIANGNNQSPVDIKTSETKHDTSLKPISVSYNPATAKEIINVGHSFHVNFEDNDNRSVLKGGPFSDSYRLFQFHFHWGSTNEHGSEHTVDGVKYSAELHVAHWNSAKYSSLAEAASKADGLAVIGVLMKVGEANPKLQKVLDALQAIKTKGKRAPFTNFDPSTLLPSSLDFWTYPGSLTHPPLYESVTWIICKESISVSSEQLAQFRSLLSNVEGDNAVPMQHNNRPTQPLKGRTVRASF
The target of assay [4] is hCA II (Homo sapiens, UniProt P00918). The assay can be described thus: stopped-flow CO2 hydration inhibition assay. The assay is classed as biochemical.
Assay [5] addresses hCA IX (Homo sapiens, UniProt Q16790). The assay can be described thus: biochemical. The assay is classed as biochemical.
The test system of assay [6] is HCT116 cells. Briefly: cell cycle analysis by propidium iodide flow cytometry. Type of assay: cell-based, human. As to conditions: HCT116, 2.94 μM, 24 h. Background: Flow cytometry measures light scatter and fluorescence of single cells or particles in a stream.
The subject of assay [7] is HCT116 cells. Briefly: Annexin V-FITC/PI apoptosis assay. The assay is classed as cell-based, human. The settings on record: HCT116, 2.94 μM, 24 h.
For assay [8], the system named is ROS level in HCT116 cells. Briefly: reactive oxygen species fluorometric assay. Type of assay: cell-based, human. The settings on record: HCT116, 2.94 μM.
For assay [9], the system named is Nrf2 in HCT116 cell nuclei. Briefly: Nrf2 transcription factor ELISA on nuclear protein. The assay is classed as cell-based, human. (In general: ELISA stands for enzyme-linked immunosorbent assay.)
The target in assay [10] is T1, recombinant Pim-1 kinase (Homo sapiens, UniProt P11309).
T1 sequence (P11309 whole entry): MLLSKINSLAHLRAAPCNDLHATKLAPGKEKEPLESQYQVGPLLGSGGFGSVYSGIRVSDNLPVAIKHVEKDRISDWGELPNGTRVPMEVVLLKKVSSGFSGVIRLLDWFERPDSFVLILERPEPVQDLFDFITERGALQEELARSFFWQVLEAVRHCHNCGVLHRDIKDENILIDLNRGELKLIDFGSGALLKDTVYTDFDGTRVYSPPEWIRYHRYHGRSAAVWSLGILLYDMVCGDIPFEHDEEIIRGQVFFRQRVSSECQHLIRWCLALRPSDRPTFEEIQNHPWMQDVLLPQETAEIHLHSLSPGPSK
In assay [11] the test system is HEK293T cells. The settings on record: for selectivity against colorectal carcinoma HCT116 cells: HEK293T IC50 versus HCT116 GI50; for average cancer cell fold selectivity: HEK293T IC50 versus average NCI-60 GI50; for IC50: read-out: IC50 (μM ± SD) normal HEK293T cells, MTT, 48 h, triplicate; for cancer cell selectivity compared to non-cancerous HEK293T cells: up to.

Assay [12] has as its system HEK293T cells. The assay can be described thus: cells. The settings on record: Homo sapiens, HEK-293T, 48 h, read-out: IC50 (μM ± SD) normal HEK293T cells, MTT, 48 h, triplicate.
The subject of assay [13] is hypoxic HCT116 cells. Briefly: cells. As to conditions: Homo sapiens, HCT-116, 48 h, read-out: Cytotoxicity IC50 (μM ± SD) HCT116.
In assay [14] the test system is hypoxic U251 cells. The assay can be described thus: cells. The settings on record: Homo sapiens, U-251, 48 h, read-out: Cytotoxicity IC50 (μM ± SD) U251.
For assay [15], the system named is hypoxic LOX IMVI cells. The assay can be described thus: cells. The settings on record: Homo sapiens, 48 h, read-out: Cytotoxicity IC50 (μM ± SD) LOX IMVI.
For assay [16], the target named is T1, recombinant Pim-1 kinase. Briefly: biochemical. The settings on record: Pim-1 kinase IC50 (μM ± SD), ADP-Glo. On the technique in general: In ADP-Glo the light output rises with the ADP produced.
Assay [17] has as its target hCA XII (Homo sapiens, UniProt O43570). The assay can be described thus: biochemical.
Assay [18] concerns hCA I, II, IX, and XII. Briefly: stopped-flow CO2 hydration inhibition assay, across the four isoforms. The assay is classed as biochemical, human.
Assay [19] relates to HCT15. The assay can be described thus: NCI-60 SRB screen. The assay is classed as cell-based. As to conditions: Homo sapiens, HCT-15, 48 h.

hCA XII, sequence (O43570 25-354): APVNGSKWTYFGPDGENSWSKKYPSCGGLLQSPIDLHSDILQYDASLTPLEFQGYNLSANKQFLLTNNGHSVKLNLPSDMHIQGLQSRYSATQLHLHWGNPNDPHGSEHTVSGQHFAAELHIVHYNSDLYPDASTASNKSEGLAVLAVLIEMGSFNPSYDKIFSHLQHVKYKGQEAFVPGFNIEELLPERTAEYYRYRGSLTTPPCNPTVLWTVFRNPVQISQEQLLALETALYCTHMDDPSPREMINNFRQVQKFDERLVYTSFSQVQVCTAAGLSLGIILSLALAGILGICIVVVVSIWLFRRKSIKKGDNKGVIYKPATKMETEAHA

`COc1ccc(C(=O)/C=C/c2ccc(Cl)c(Cl)c2)cc1S(N)(=O)=O` [4i, 5-[(2E)-3-(3,4-Dichlorophenyl)prop-2-enoyl]-2-methoxybenzene-1-sulfonamide]: the concentration for 50% growth inhibition (GI50) (commonly the concentration that inhibits growth by half) in assay [1] is given as “sub-micromolar”.

In assay [2], `COc1ccccc1/C=C/C(=O)c1ccc(OC)c(S(N)(=O)=O)c1` [4e, 2-Methoxy-5-[(2E)-3-(2-methoxyphenyl)prop-2-enoyl]benzene-1-sulfonamide] had a GI50 of 0.35 µM.

Take `COc1ccc(C(=O)/C=C/c2cccc3ccccc23)cc1S(N)(=O)=O` [4j, 2-Methoxy-5-[(2E)-3-(naphthalen-1-yl)prop-2-enoyl]benzene-1-sulfonamide]: the 50% growth inhibitory concentration (GI50) result in assay [1] is “sub-micromolar”. The Ki – broadly, the dissociation constant of the complex between target and ligand, obtained from inhibition or displacement – in assay [3] was greater than 10 µM. For the same molecule, the inhibitory constant (Ki) in assay [4] was greater than 10 µM. For the same molecule, the “selectivity to hCA IX over hCA I and hCA II / other tested isoforms” value in assay [5] is listed as “ca. six-fold selectivity; also recorded: more than six-fold selective; also recorded: greater than six-fold selectivity”. In assay [6], the “cell cycle arrest phase” value is reported as “arrested the cell cycle of HCT116 cells at the G1/S phase; also recorded: arresting cell growth at the G1/S phase”, the “percentage of cells at the G2/M phase” value is 6%, the “percentage of cells in G1 (G0-G1) phase” value is listed as 52% and the “percentage of cells in S phase” value is reported as 42%. Moreover, in assay [7], the early apoptosis is 8.3%, the “fold increase of total apoptotic cells versus control” value came to 25 fold, the late apoptosis amounted to 27.8% and the total apoptotic cells is reported as 39.5%. In addition, the “ROS level increase compared to DMSO-treated cells” value in assay [8] is “ca. 50%”. Moreover, the “fold increase in transcriptionally active nuclear Nrf2” value in [9] (HCT116, 2.94 μM, versus DMSO) is given as “ca. 3.3 fold”. For the same molecule, in assay [9] (HCT116 nuclei, 2.94 μM, control 0.89), the “Nrf2 (ng/mL ± SD)” value was 2.92 ng/mL. Moreover, the “fold more potent than staurosporine on Pim-1 kinase” value in assay [10] was “ca. 1.4 fold”. In assay [11], the “selectivity against colorectal carcinoma HCT116 cells” value was roughly 15 fold; the “average cancer cell fold selectivity” value is roughly 9 fold; the IC50 (in general, the concentration that gives 50% inhibition) came out at 20.4 ± 0.94 µM; the “cancer cell selectivity compared to non-cancerous HEK293T cells” value is given as “up to 50 fold”. The IC50 in [12] was roughly 20 µM. The IC50 in assay [13] is 2.94 ± 0.19 µM. Moreover, the IC50 in assay [14] worked out at 4.6 ± 0.26 µM. Further, the concentration for half-maximal inhibition (IC50) in assay [15] stood at 12.1 ± 0.54 µM. For the same molecule, in [16], the IC50 was ~0.34 µM and 0.34 µM.

In the case of `COc1ccc(C(C)=O)cc1S(N)(=O)=O` [compound 3, 5-acetyl-2-methoxybenzene-1-sulfonamide], the Ki was determined as 2.32 µM in assay [3], 4.59 µM in assay [4], 1.39 µM in assay [5] and 5.25 µM in [17].

As to `COc1ccc(C(=O)/C=C/c2cccc(Br)c2)cc1S(N)(=O)=O` [4d, 5-[(2E)-3-(3-Bromophenyl)prop-2-enoyl]-2-methoxybenzene-1-sulfonamide], the 50% growth inhibitory concentration (GI50) entry in assay [1] is recorded as “sub-micromolar”. Besides, the Ki in [3] was found to be 0.85 µM; in assay [4] it was 0.5 µM; in assay [18] (read-out: average Ki value against the four tested isoforms, hCA I, II, IX, XII), 4 µM. Besides, the “selectivity toward hCA I and hCA II over hCA IX and hCA XII” value in [18] is reported as “ca. 10 fold”. Besides, the “selectivity against colorectal carcinoma HCT116 cells” value in assay [11] is on record as “ca. 50 fold”. In assay [11], the “average cancer cell fold selectivity” value is “ca. 20 fold”. Moreover, the IC50 in [11] is 52.7 ± 2.03 µM; in assay [12] it was roughly 53 µM; in assay [13], 6.32 ± 0.38 µM; in assay [14], 14.8 ± 0.61 µM; in assay [15], 38.3 ± 1.63 µM; in assay [16] it was ~1.06 µM and 1.06 µM. In assay [11], the “cancer cell selectivity compared to non-cancerous HEK293T cells” value is “up to 50 fold”.

As to `COc1ccc(C(=O)/C=C/c2ccccc2Br)cc1S(N)(=O)=O` [4c, 5-[(2E)-3-(2-Bromophenyl)prop-2-enoyl]-2-methoxybenzene-1-sulfonamide], the inhibition constant (Ki) in assay [3] was greater than 10 µM; in [4] it was greater than 10 µM; in assay [5] it was 4.71 µM; in assay [17] it was greater than 10 µM.

Take `COc1ccc(C(=O)/C=C/c2cccc(Cl)c2)cc1S(N)(=O)=O` [4b, 5-[(2E)-3-(3-Chlorophenyl)prop-2-enoyl]-2-methoxybenzene-1-sulfonamide]: the GI50 entry in assay [1] is “sub-micromolar”. Also, the inhibition constant Ki in assay [3], in assay [4], in assay [5] and in [17] was greater than 10 µM each time.

For the molecule `COc1ccc(C(=O)/C=C/c2ccc3ccccc3c2)cc1S(N)(=O)=O` [4k, 2-Methoxy-5-[(2E)-3-(Naphthalen-2-Yl)Prop-2-Enoyl]Benzene-1-Sulfonamide], the GI50 result in [1] is “sub-micromolar”; in assay [19] it was 0.58 µM. For the same molecule, the Ki in assay [3], in [4], in assay [5] and in assay [17] was greater than 10 µM each time.

As to `COc1ccc(C(=O)/C=C/c2cc3c(cc2Br)OCO3)cc1S(N)(=O)=O` [4l, 5-[(2E)-3-(6-Bromo-2H-1,3-benzodioxol-5-yl)prop-2-enoyl]-2-methoxybenzene-1-sulfonamide], in [2], the GI50 worked out at 0.45 µM. Moreover, the inhibition constant Ki in assay [3] was greater than 10 µM.

Take `COc1ccc(C(=O)/C=C/c2ccccc2Cl)cc1S(N)(=O)=O` [4a, 5-[(2E)-3-(2-Chlorophenyl)prop-2-enoyl]-2-methoxybenzene-1-sulfonamide]: the inhibition constant (Ki) in assay [3], in [4], in [5] and in assay [17] was greater than 10 µM in each case.
